Several values for one entry are separate records, joined by “and”; a condition that tells them apart may be missing. Equal values may be shown once.
System: Salmonella typhimurium TA98
Test: Ames test, strain TA98
Type: cell-based
Settings: positive control at 2 µg/mL
Experimental: The aim of the study was to assess the mutagenic potential of three extracts obtained from stem cells using two strains of Salmonella typhimurium carrying two types of mutations: TA 98-reading frame shift and TA 100-base pair substitution.
The experimental procedure was carried out basing on the manufacturer's experimental protocol (Xenometrix).

With `O=[N+]([O-])c1ccc2c(c1)Cc1ccccc1-2` [2-nitrofluorene (2-NF), 2-nitrofluorene] the “MOI (Multiplicity of induction compared to baseline)” value was 6.9 and 5.6.

From patent publication EP4389107A1, “METHOD OF PREPARATION OF COSMETIC C[…] […] AND COSMETIC C[…] […]” (Aero-Bw K. Domagala Sp. Jawna, priority 2022, dated 2024)
